Test results as given in patent US20180172678A1, “Dynamic Light Scattering Nanoplatform For High-Throughput Drug Screening” (Agency for Science, Technology and Research, priority 2016, published 2018).
*1 amine or outer side, *2 acyl side, *3 side chain or, on linkers, in order; H or OH if unused. Where a SMILES comes first, the peptide text is derived from it. Bridges are numbered along the chain shown (N, C = ends). Roman numbers before positions name the chains, in order. [ ]: non-standard residue; d: D form. Actinocin(9to1) = Cc1c2oc3c(C)ccc(C(=O)[*:1])c3nc-2c(C(=O)[*:2])c(N)c1=O; NMeV = CN[C@H](C(=O)O)C(C)C; Sar = CNCC(=O)O

How the values were obtained:
wtp53 in HCT116 cells = assay: DLS detection with PUMA-AuNP nano-dumbbell probes of wtp53 expression level in drug treated HCT116 cell lysates; format: cell-based; settings: HCT116 cell lysate after Mdm2 inhibitor treatment, mixed with PUMA-AuNP probes
Description: Referring to FIG. 8, detection of wtp53 expression level in drug treated HCT116 cell lysates in accordance with the present embodiment is depicted in a bar graph 800. Besides the H1299 Ecdysone-Inducible cell lines, the effect of Mdm2 inhibitors such as nutlin 810, pm2 812, and vip82 814 on HCT116 cells was investigated. These inhibitors could inhibit Mdm2 targeted wtp53 degradation so that the wtp53 protein level in the HCT116 cell lysate will increase with the concentration of the drug applied. […] However, the extent of size increase is not as high as what was observed upon anticancer drug treatment presented. One possible explanation is that PUMA-AuNP nano-dumbbell probes are sensitive to detect activated wtp53 with enhanced binding to RE, whereas the over-expression of wtp53 may not enhance DNA binding.

mutant p53 (R175H) = target: T1, mutant p53 (R175H) (Homo sapiens, UniProt P04637, R175H); assay: Mutant p53 reactivation drug screening in PonA induced H1299 cells, DLS with PUMA-AuNP nano-dumbbell probes; format: cell-based
T1 construct: expressed in transfected cells; host or cells: PonA induced H1299 cells
Method: (§1) The ability to clearly distinguish wildtype p53 from mutant p53 in cell lysates provides the potential of the assay in accordance with the present embodiment for screening drugs that can effectively reactivate mutant p53 directly in cells and recovered the biological samples from cell lysates for detection. FIG. 9 depicts a schematic diagram 900 showing the process of mutant reactivation drug screening. Incubation of drug with live cancer cells expressing mutant p53 for reactivation is performed 910 (Step 1). The drug treated cells are then chemically lysed 920 (Step 2). The resultant cell lysates are next subjected 930 to incubation with p53-RE functionalized AuNP nano-dumbbell probes (Step 3). The obtained DLS readout allow evaluation of whether the drug applied has successfully reactivated mutant p53 to restore its binding affinity to RE. Failure in p53 reactivation will give rise to no change in the position of the DLS signal in accordance with the present embodiment.
(§2) Referring back to Step 1, drugs to be tested are first incubated 912 with live cancer cells expressing mutp53 proteins. Drugs are then uptaken 914 by the cells and interact with the mutp53 proteins. The drug treated cancer cells are subsequently lysed at Step 2 (920) to obtain crude cell lysates. These cell lysates are incubated with RE-AuNP probes and DLS is finally employed to evaluate the efficiency of mutp53 reactivation 932. If the reactivation is successful 934, the reactivated p53 protein will have a restored binding toward the RE, thus leading to increase in the diameter of the p53 RE-AuNP probes as measured 936 by DLS. In contrast, failure in reactivation 938 will not restore the binding of mutp53 protein to the RE sequence on the nano-dumbbell probes, thus no change in DLS signal is measured 940. Thus, the bioassay in accordance with the present embodiment is able to evaluate the extent of mutant reactivation by comparing the DLS signal obtained with the wtp53 binding to RE. The effective concentration of drugs for reactivation can also be determined by performing a series of concentration-dependent experiments during cell reactivation
The bar graphs 1000, 1050 plot particle size along the y-axis 1004, 1054 and depict screening of mutant reactivation drugs.

mutant p53 (R273H) = target: T2, mutant p53 (R273H) (Homo sapiens, UniProt P04637, R273H); assay: as above; format: cell-based
T2 construct: expressed in transfected cells; host or cells: PonA induced H1299 cells
Method: as §1, §2
However, the NSC drug has no effect at either low concentrations 1068 or high concentrations 1070 due to its specificity only to R175H mutant.

wildtype p53 = assay: DLS detection with PUMA-AuNP nano-dumbbell probes of wtp53-RE binding in anticancer drug treated PonA induced H1299 cell lysates; format: cell-based; settings: drug-treated PonA induced p53 H1299 cell lysate, versus untreated lysate
Description: To investigate the applicability of the assay in accordance with the present embodiment to cell lysates, the H1299 Ecdysone-Inducible (EI) system for controllable and constitutive expression of p53 in H1299 cells induced by ponasterone A (PonA) was used. Referring to FIG. 7, bar graphs 700, 750 depict cell lysate analysis statistics in accordance with the present embodiment. The bar graph 700 plots size along the y-axis 704 and depicts wildtype p53 cell lysate 710 and three mutant p53 cell lysates: G245S 712, R273H 714 and R175H 716. The p53 null cell lysate (EI) 718, which serves as a negative control, gives negligible size shift from that of the PUMA-AuNP nano-dumbbell probes 720. Remarkably, clear distinctions between cell lysates with wtp53 710 and the DNA contact mutant retaining native structure (R273H) 714, the weakly stabilized mutant (G245S) 712 and the globally denatured mutant (R175H) 716 can be observed in the bar graph 700. Thus, it can be seen from the analytical results in the graph 700 that the bioassay in accordance with the present embodiment is not only sensitive and selective in the context of purified proteins but also applicable to highly complex biological samples.
Referring to FIG. 7B, the bar graph 750 plots size along the y-axis 754 and depicts detection of wildtype p53 in PonA induced p53 cell lysates 760 versus a […] cell lysate (EI) 762 (used together with the PUMA-AuNP nano-dumbbell probes 763 as a negative control), and an anticancer drug including ActD-treated 764, Dox-treated 766, and Etoposide-treated cell lysate 768.

p53 = p53 (Homo sapiens, UniProt P04637); assay: Dissociation constant (KD) of p53 for DNA promoter sequences (Table 1); format: binding; settings: concentration of p53 for 50% of the DNA to be bound; free dsDNA sequence
Description: As aforestated, the p53 protein is a transcription factor which will bind specifically to DNA that contains RE sequences. In nature, wildtype p53 protein will bind to many promoter sequences and subsequently activate a wide range of genes for DNA repair, cell cycle arrest, apoptosis and its own degradation. As shown hereinabove, the bioassay in accordance with the present embodiment can be used for DNA selectivity study by conjugating different RE sequences to the AuNPs. However, it would be technically tedious to carry out conjugation for each DNA sequence and then screen for the binding affinity of a large number of promoter sequences. Therefore, a convenient competition assay which requires only one set of p53 RE-linked AuNPs has been designed in accordance with the present embodiment to evaluate the binding affinity of p53 protein to various promoter sequences listed in Table 1. This competition assay further allows the identification of the specific downstream pathway that is triggered upon p53 activation or reactivation, providing crucial information on the drug validation and outcome of the drug action.
The dissociation constant (KD) is defined as the concentration of p53 for 50% of the DNA to be bound. The lower the KD value, the stronger the binding affinity between wtp53 and the tested free DNA sequence. Thus, a smaller change in the size of the complex bound probes is expected due to the competitive binding of wtp53 between the free DNAs and conjugated RE sequences on AuNPs. […] Application of this assay to the activated or reactivated p53 proteins enables determination of which promoter sequence binds strongly and consequently identifies its downstream targets (apoptosis, cell cycle arrest or DNA repair).

[1] = high concentrations (++): COTI-2 1 μM, Prima-1^met 20 μM, NSC 3 μM
[2] = low concentrations (+): NSC 0.3 μM

Molecule	reactivation of mutant p53 (R175H) to bind with PUMA-AuNP probes (mutant p53 (R175H); [1])	reactivation of mutant p53 (R175H) to bind with PUMA-AuNP probes (mutant p53 (R175H); [2])	reactivation of mutant p53 (R273H) to bind with PUMA-AuNP probes (mutant p53 (R273H); [1])	reactivation of mutant p53 (R273H) to bind with PUMA-AuNP probes (mutant p53 (R273H); [2])	activation of wtp53 binding to the RE (DLS particle diameter of PUMA-AuNP probes) (wildtype p53)	Kd (p53)	also measured
COc1ccc(C2=NC(c3ccc(Cl)cc3)C(c3ccc(Cl)cc3)N2C(=O)N2CCNC(=O)C2)c(OC(C)C)c1 (stereo not shown) [nutlin]							wtp53 level in cell lysate detected by DLS size increase (wtp53 in HCT116 cells): increased wtp53 level
COCC1(CO)C(=O)C2CCN1CC2 (stereo not shown) [Prima-1^met]	successful reactivation	not at low concentrations	successful reactivation	not at low concentrations			
COc1cccc2c1C(=O)c1c(O)c3c(c(O)c1C2=O)C[C@@](O)(C(=O)CO)C[C@@H]3O[C@H]1C[C@H](N)[C@H](O)[C@H](C)O1 [Dox, doxorubicin]					larger diameter		
S=C(N/N=C1\CCCc2cccnc21)N1CCN(c2ccccn2)CC1 [COTI-2]	successful reactivation	not at low concentrations	successful reactivation	not at low concentrations			
Cc1c2oc3c(C)ccc(C(=O)N[C@@H]4C(=O)N[C@H](C(C)C)C(=O)N5CCC[C@H]5C(=O)N(C)CC(=O)N(C)[C@@H](C(C)C)C(=O)O[C@@H]4C)c3nc-2c(C(=O)N[C@@H]2C(=O)N[C@H](C(C)C)C(=O)N3CCC[C@H]3C(=O)N(C)CC(=O)N(C)[C@@H](C(C)C)C(=O)O[C@@H]2C)c(N)c1=O [ActD, actinomycin D] (I: T[dV]P[Sar][NMeV] / II: T[dV]P[Sar][NMeV]; ester I:1-I:C, II:1-II:C; linker I:N-II:N via Actinocin(9to1))					larger diameter		
Bax a: p53 promoter dsDNA sequence, gene function apoptosis (sense TCATTCACAAGTTAGAGACAAGCCTAGCTC; antisense GAGCTAGGCTTGTCTCTAACTTGTGAATGA; DNA, backbone not given here)						73 ± 33 nM	
COc1cc([C@@H]2c3cc4c(cc3[C@@H](O[C@@H]3O[C@@H]5CO[C@@H](C)O[C@H]5[C@H](O)[C@H]3O)[C@H]3COC(=O)[C@H]23)OCO4)cc(OC)c1O [Etoposide, etoposide]					larger diameter		
CC(=NNC(=S)N1CC2CCC(CC2)C1)c1ccccn1 [NSC]	shows effect	shows effect	no effect	no effect			
GADD45: p53 promoter dsDNA sequence, gene function DNA repair (sense ATCATGAACATGTCTAAGCATGCTGAGCTC; antisense GAGCTCAGCATGCTTAGACATGTTCATGAT; DNA, backbone not given here)						7.7 ± 1.2 nM	
ConA: Artificial consensus p53-binding dsDNA sequence; positive control (nucleic acid, chemistry not given here; one strand is listed 3' to 5', positive control) sense: GTTAGAGGGGCATGTCCGGGCATGTCCGGGCAGA antisense: CAATCTCCCCGTACAGGCCCGTACAGGCCCGTCT						3 nM	
